Measurements reported in patent publication US9492382B2, “Hyperbranched polyester having a hydrophobic core for solubilizing active ingredients of low solubility” (BASF SE, priority 2009, dated 2016).

Assay: physchem
Conditions: pH 7, aqueous buffer, thermodynamic from solid
Experimental: 2 g of polymer were weighed out into a 50 ml glass beaker. Then 0.2 g of each active ingredient was weighed out into the batch to give a supersaturated solution. […] The mixture was then stirred at room temperature for 72 hours, using a magnetic stirrer. After a rest time of one hour, excess (i.e., unsolubilized) active ingredient was removed by filtration. The resulting clear or opaque solution was then analyzed for its active ingredient content by means of UV spectroscopy or HPLC.
The results are compiled in tables 2 and 3.

solubility at 72 h: < 100 µg/mL
SMILES: Clc1ccccc1C(c1ccccc1)(c1ccccc1)n1ccnc1 [Clotrimazole]
